Source: PubChem BioAssay AID2060900 (Molecular Pharmacology Branch, DTP, NCI, 2025)
One block for each compound: values may come before it.

System: 521955-158-R2-J5-PDC complex spheroids, viability
Assay: Anticancer human tumor 521955-158-R2-J5-PDC patient-derived pancreatic carcinoma cell line growth inhibition [RAS]
Conditions: for IC50: curve of first compound; for viability, T/C: stronger effect = lower value
Summary of the method: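 Agents were tested in combination matrices in half-log decrements from a top concentration at or near clinical Cmax (10 microM if undetermined). Targets were multi-cell spheroids of tumour lines plus HUVEC and MSC stromal cells.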

[1] = second compound 0.000949 µM, first compound 0.0316 µM
[2] = second compound 0.000949 µM, first compound 0.1 µM
[3] = second compound 0.000949 µM, first compound 0.316 µM
[4] = second compound 0.000949 µM, first compound 1 µM
[5] = second compound 0.000949 µM, first compound 3.16 µM
[6] = second compound 0.000949 µM, first compound 10 µM
[7] = second compound 0.003 µM, first compound 0.0316 µM
[8] = second compound 0.003 µM, first compound 0.1 µM
[9] = second compound 0.003 µM, first compound 0.316 µM
[10] = second compound 0.003 µM, first compound 1 µM
[11] = second compound 0.003 µM, first compound 3.16 µM
[12] = second compound 0.003 µM, first compound 10 µM
[13] = second compound 0.00949 µM, first compound 0.0316 µM
[14] = second compound 0.00949 µM, first compound 0.1 µM
[15] = second compound 0.00949 µM, first compound 0.316 µM
[16] = second compound 0.00949 µM, first compound 1 µM
[17] = second compound 0.00949 µM, first compound 3.16 µM
[18] = second compound 0.00949 µM, first compound 10 µM
[19] = second compound 0.03 µM, first compound 0.0316 µM
[20] = second compound 0.03 µM, first compound 0.1 µM
[21] = second compound 0.03 µM, first compound 0.316 µM
[22] = second compound 0.03 µM, first compound 1 µM
[23] = second compound 0.03 µM, first compound 3.16 µM
[24] = second compound 0.03 µM, first compound 10 µM
[25] = second compound 0.0949 µM, first compound 0.0316 µM
[26] = second compound 0.0949 µM, first compound 0.1 µM
[27] = second compound 0.0949 µM, first compound 0.316 µM
[28] = second compound 0.0949 µM, first compound 1 µM
[29] = second compound 0.0949 µM, first compound 3.16 µM
[30] = second compound 0.0949 µM, first compound 10 µM
[31] = second compound 0.3 µM, first compound 0.0316 µM
[32] = second compound 0.3 µM, first compound 0.1 µM
[33] = second compound 0.3 µM, first compound 0.316 µM
[34] = second compound 0.3 µM, first compound 1 µM
[35] = second compound 0.3 µM, first compound 3.16 µM
[36] = second compound 0.3 µM, first compound 10 µM
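Also: compound exposure lasted seven days before the viability read.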
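For viability, T/C in this document: spheroids also contain HUVEC endothelial cells and mesenchymal stem cells as stroma.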

IC50 (second compound 0.000949 µM): > 10000 nM
IC50 (second compound 0.003 µM): 5110 nM
IC50 (second compound 0.00949 µM): 3120 nM
IC50 (second compound 0.03 µM): 1190 nM
IC50 (second compound 0.0949 µM): 4390 nM
IC50 (second compound 0.3 µM): 546 nM
SMILES: Cc1nc(N2CCC3(CC2)COC(C)C3N)c(CO)nc1Sc1ccnc(N)c1Cl (stereo not drawn) + CCn1c(-c2cccnc2C(C)OC)c2c3cc(ccc31)N1CCOC(CC(NC(=O)C(C(C)C)N(C)C(=O)C3(F)CCN(C(=O)C#CC(C)(C)N(C)C)CC3)C(=O)N3CCCC(N3)C(=O)OCC(C)(C)C2)C1
viability, T/C [1]: 72.8%
viability, T/C [2]: 64%
viability, T/C [3]: 50.8%
viability, T/C [4]: 59.4%
viability, T/C [5]: 52.6%
viability, T/C [6]: 50.8%
viability, T/C [7]: 74.3%
viability, T/C [8]: 61.3%
viability, T/C [9]: 73.6%
viability, T/C [10]: 61.4%
viability, T/C [11]: 49.4%
viability, T/C [12]: 46.4%
viability, T/C [13]: 75.7%
viability, T/C [14]: 61.8%
viability, T/C [15]: 61.6%
viability, T/C [16]: 50.4%
viability, T/C [17]: 50.1%
viability, T/C [18]: 48.4%
viability, T/C [19]: 83%
viability, T/C [20]: 64.4%
viability, T/C [21]: 54.2%
viability, T/C [22]: 49.2%
viability, T/C [23]: 50.8%
viability, T/C [24]: 47%
viability, T/C [25]: 68%
viability, T/C [26]: 66.3%
viability, T/C [27]: 55.8%
viability, T/C [28]: 54.1%
viability, T/C [29]: 55%
viability, T/C [30]: 45.6%
viability, T/C [31]: 59.1%
viability, T/C [32]: 46.3%
viability, T/C [33]: 53.9%
viability, T/C [34]: 51.6%
viability, T/C [35]: 45.4%
viability, T/C [36]: 42.8%

IC50 (second compound 0.000949 µM): 4500 nM
IC50 (second compound 0.003 µM): > 10000 nM
IC50 (second compound 0.00949 µM): 987 nM
IC50 (second compound 0.03 µM): > 10000 nM
IC50 (second compound 0.0949 µM): 1200 nM
IC50 (second compound 0.3 µM): 129 nM
SMILES: NC1c2ccccc2OC12CCN(c1cnc3c(N4CCCc5ncccc54)n[nH]c3n1)CC2 (stereo not drawn) + CCn1c(-c2cccnc2C(C)OC)c2c3cc(ccc31)N1CCOC(CC(NC(=O)C(C(C)C)N(C)C(=O)C3(F)CCN(C(=O)C#CC(C)(C)N(C)C)CC3)C(=O)N3CCCC(N3)C(=O)OCC(C)(C)C2)C1
viability, T/C [1]: 62.7%
viability, T/C [2]: 61.4%
viability, T/C [3]: 53.5%
viability, T/C [4]: 52.3%
viability, T/C [5]: 50.2%
viability, T/C [6]: 50%
viability, T/C [7]: 64%
viability, T/C [8]: 51%
viability, T/C [9]: 58.8%
viability, T/C [10]: 55.4%
viability, T/C [11]: 52.7%
viability, T/C [12]: 49.8%
viability, T/C [13]: 53.7%
viability, T/C [14]: 48.1%
viability, T/C [15]: 51.8%
viability, T/C [16]: 52.5%
viability, T/C [17]: 53.2%
viability, T/C [18]: 43.6%
viability, T/C [19]: 60.3%
viability, T/C [20]: 56.8%
viability, T/C [21]: 44.2%
viability, T/C [22]: 51.3%
viability, T/C [23]: 58.9%
viability, T/C [24]: 47.1%
viability, T/C [25]: 52.9%
viability, T/C [26]: 54.4%
viability, T/C [27]: 43.3%
viability, T/C [28]: 49.7%
viability, T/C [29]: 56.5%
viability, T/C [30]: 45.7%
viability, T/C [31]: 51.3%
viability, T/C [32]: 46.3%
viability, T/C [33]: 51.9%
viability, T/C [34]: 51.3%
viability, T/C [35]: 49.5%
viability, T/C [36]: 42.9%

IC50 (second compound 0.000949 µM): < 31.6 nM
IC50 (second compound 0.003 µM): < 31.6 nM
IC50 (second compound 0.00949 µM): < 31.6 nM
IC50 (second compound 0.03 µM): < 31.6 nM
IC50 (second compound 0.0949 µM): < 31.6 nM
IC50 (second compound 0.3 µM): < 31.6 nM
SMILES: CC(=O)OC12COC1CC(O)C1(C)C(=O)C(O)C3=C(C)C(OC(=O)C(O)C(NC(=O)OC(C)(C)C)c4ccccc4)CC(O)(C(OC(=O)c4ccccc4)C21)C3(C)C (stereo not drawn) + CCn1c(-c2cccnc2C(C)OC)c2c3cc(ccc31)N1CCOC(CC(NC(=O)C(C(C)C)N(C)C(=O)C3(F)CCN(C(=O)C#CC(C)(C)N(C)C)CC3)C(=O)N3CCCC(N3)C(=O)OCC(C)(C)C2)C1
viability, T/C [1]: 47.5%
viability, T/C [2]: 23%
viability, T/C [3]: 24.6%
viability, T/C [4]: 22%
viability, T/C [5]: 28%
viability, T/C [6]: 40.4%
viability, T/C [7]: 31.7%
viability, T/C [8]: 25.1%
viability, T/C [9]: 27.6%
viability, T/C [10]: 23.8%
viability, T/C [11]: 28.9%
viability, T/C [12]: 42.2%
viability, T/C [13]: 33.5%
viability, T/C [14]: 24.6%
viability, T/C [15]: 23.6%
viability, T/C [16]: 25.8%
viability, T/C [17]: 40%
viability, T/C [18]: 38.1%
viability, T/C [19]: 35.7%
viability, T/C [20]: 20.3%
viability, T/C [21]: 22.8%
viability, T/C [22]: 22.9%
viability, T/C [23]: 32.3%
viability, T/C [24]: 41.6%
viability, T/C [25]: 39.1%
viability, T/C [26]: 26.8%
viability, T/C [27]: 19.3%
viability, T/C [28]: 25.5%
viability, T/C [29]: 38.2%
viability, T/C [30]: 41.1%
viability, T/C [31]: 32.7%
viability, T/C [32]: 22.7%
viability, T/C [33]: 23.4%
viability, T/C [34]: 32.3%
viability, T/C [35]: 41.9%
viability, T/C [36]: 39.9%

IC50 (second compound 0.0316 µM): 55.4 nM
IC50 (second compound 0.1 µM): < 31.6 nM
IC50 (second compound 0.316 µM): < 31.6 nM
IC50 (second compound 1 µM): < 31.6 nM
IC50 (second compound 3.16 µM): < 31.6 nM
IC50 (second compound 10 µM): < 31.6 nM
SMILES: CC(Nc1ccc2c(c1)OCCn1cc(N3C(=O)OCC3C(F)F)nc1-2)C(N)=O (stereo not drawn) + C#Cc1c(F)ccc2cc(O)cc(-c3ncc4c(N5CC6CCC(C5)N6)nc(OCC56CCCN5CC(F)C6)nc4c3F)c12
viability, T/C (second compound 0.0316 µM, first compound 0.0316 µM): 60.7%
viability, T/C (second compound 0.0316 µM, first compound 0.1 µM): 37.6%
viability, T/C (second compound 0.0316 µM, first compound 0.316 µM): 28.7%
viability, T/C (second compound 0.0316 µM, first compound 1 µM): 17.1%
viability, T/C (second compound 0.0316 µM, first compound 3.16 µM): 12.9%
viability, T/C (second compound 0.0316 µM, first compound 10 µM): 11.9%
viability, T/C (second compound 0.1 µM, first compound 0.0316 µM): 46.9%
viability, T/C (second compound 0.1 µM, first compound 0.1 µM): 31.9%
viability, T/C (second compound 0.1 µM, first compound 0.316 µM): 24.3%
viability, T/C (second compound 0.1 µM, first compound 1 µM): 16%
viability, T/C (second compound 0.1 µM, first compound 3.16 µM): 13.6%
viability, T/C (second compound 0.1 µM, first compound 10 µM): 11.3%
viability, T/C (second compound 0.316 µM, first compound 0.0316 µM): 48.1%
viability, T/C (second compound 0.316 µM, first compound 0.1 µM): 35.1%
viability, T/C (second compound 0.316 µM, first compound 0.316 µM): 18.7%
viability, T/C (second compound 0.316 µM, first compound 1 µM): 16%
viability, T/C (second compound 0.316 µM, first compound 3.16 µM): 10.8%
viability, T/C (second compound 0.316 µM, first compound 10 µM): 10.2%
viability, T/C (second compound 1 µM, first compound 0.0316 µM): 36%
viability, T/C (second compound 1 µM, first compound 0.1 µM): 28.7%
viability, T/C (second compound 1 µM, first compound 0.316 µM): 18.2%
viability, T/C (second compound 1 µM, first compound 1 µM): 16.7%
viability, T/C (second compound 1 µM, first compound 3.16 µM): 11.7%
viability, T/C (second compound 1 µM, first compound 10 µM): 8.56%
viability, T/C (second compound 3.16 µM, first compound 0.0316 µM): 32.7%
viability, T/C (second compound 3.16 µM, first compound 0.1 µM): 25.3%
viability, T/C (second compound 3.16 µM, first compound 0.316 µM): 16.3%
viability, T/C (second compound 3.16 µM, first compound 1 µM): 11%
viability, T/C (second compound 3.16 µM, first compound 3.16 µM): 8.73%
viability, T/C (second compound 3.16 µM, first compound 10 µM): 6.29%
viability, T/C (second compound 10 µM, first compound 0.0316 µM): 26.5%
viability, T/C (second compound 10 µM, first compound 0.1 µM): 16.8%
viability, T/C (second compound 10 µM, first compound 0.316 µM): 8.86%
viability, T/C (second compound 10 µM, first compound 1 µM): 4.7%
viability, T/C (second compound 10 µM, first compound 3.16 µM): 2.91%
viability, T/C (second compound 10 µM, first compound 10 µM): 1.54%
